From patent publication US6613903B2, “Modulators of protein tyrosine phosphatases (PTPases)” (Novo Nordisk A/S, priority 2000, dated 2003)
pKi: −log10 of the molar value.

Biological target: T1, truncated form of PTP1 B (corresponding to the first 321 amino acids) (Homo sapiens, UniProt P18031)
T1 construct: truncated form of PTP1 B (corresponding to the first 321 amino acids); made in house; host or cells: E. coli
T1 sequence (P18031 1-321): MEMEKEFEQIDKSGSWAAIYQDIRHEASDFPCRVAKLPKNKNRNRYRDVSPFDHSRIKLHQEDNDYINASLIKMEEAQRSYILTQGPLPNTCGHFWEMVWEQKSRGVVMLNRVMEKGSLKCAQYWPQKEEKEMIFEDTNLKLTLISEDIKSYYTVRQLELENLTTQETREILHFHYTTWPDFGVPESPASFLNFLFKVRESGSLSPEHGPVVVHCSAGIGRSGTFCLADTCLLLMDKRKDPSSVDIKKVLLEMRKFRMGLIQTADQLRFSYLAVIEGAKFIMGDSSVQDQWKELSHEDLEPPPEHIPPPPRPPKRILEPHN
Assay: Inhibition of PTP1B, p-nitrophenyl phosphate as substrate, enzyme kinetics
Format: biochemical
Conditions: truncated PTP1B expressed in E. coli; substrate p-nitrophenyl phosphate 0.16 to 10 mM; sodium acetate pH 5.5; 25° C. for 60 minutes; absorbance at 405 nm
Experimental: The compounds are evaluated for biological activity with a truncated form of PTP1 B (corresponding to the first 321 amino acids), which was expressed in E. coli and purified to apparent homogeneity using published procedures well-known to those skilled in the art. The enzyme reactions are carried out using standard conditions essentially as described by Burke et al. (Biochemistry 35; 15989-15996 (1996)). The assay conditions are as follows. Appropriate concentrations of the compounds of the invention are added to the reaction mixtures containing different concentrations of the substrate, p-nitrophenyl phosphate (range: 0.16 to 10 mM—final assay concentration). The buffer used was 100 mM sodium acetate pH 5.5, 50 mM sodium chloride, 0.1% (w/v) bovine serum albumin and 5 mM dithiothreitol (total volume […]). The reaction was started by addition of the enzyme and carried out in microtiter plates at 25° C. for 60 minutes. The reactions are stopped by addition of NaOH. The enzyme activity was determined by measurement of the absorbance at 405 nm with appropriate corrections for absorbance at 405 nm of the compounds and p-nitrophenyl phosphate. The data are analyzed using nonlinear regression fit to classical Michaelis Menten enzyme kinetic models. Inhibition is expressed as Ki values in μM.

pKi	Structure (SMILES)
7.24	O=C(O)C(=O)Nc1sc2c(c1C(=O)O)CCN[C@H]2CNCc1ccc(Oc2ccccc2)cc1 [Example 28, 2-(Oxalyl-amino)-7-(S)-((4-phenoxy-benzylamino)methyl)-4,5,6,7-tetrahydro-thieno[2,3-c]pyridine-3-carboxylic acid]
7.51	O=C(NC[C@@H]1NCCc2c1sc(NC(=O)C(=O)O)c2C(=O)O)Nc1ccc(Oc2ccccc2)cc1 [Example 29, 2-(Oxalyl-amino)-7-(S)-(3-(4-phenoxy-phenyl)ureidomethyl)-4,5,6,7-tetrahydro-thieno[2,3-c]pyridine-3-carboxylic acid]
7.15	O=C(O)C(=O)Nc1sc2c(c1C(=O)O)CCNC2CNC(=O)c1cn(Cc2ccccc2)c2ccccc12 (centres unmarked) [Example 30, 7-(((1-Benzyl-1H-indole-3-carbonyl)amino)methyl)-2-(oxalyl-amino)-4,5,6,7-tetrahydro-thieno[2,3-c]pyridine-3-carboxylic acid]
5.96	CC(=O)NCC1NCCc2c1sc(NC(=O)C(=O)O)c2C(=O)O (centres unmarked) [Example 31, 7-(Acetylamino-methyl)-2-(oxalyl-amino)-4,5,6,7-tetrahydro-thieno[2,3-c]pyridine-3-carboxylic acid]
7.11	CC(C)(N)CCCC(=O)NCC1NCCc2c1sc(NC(=O)C(=O)O)c2C(=O)O (centres unmarked) [Example 32, 7-((5-Amino-5-methyl-hexanoylamino)methyl)-2-(oxalyl-amino)-4,5,6,7-tetrahydro-thieno[2,3-c]pyridine-3-carboxylic acid]
7.74	O=C(O)C(=O)Nc1sc2c(c1C(=O)O)CCN[C@H]2CNC(=O)c1cc2cc(F)ccc2[nH]1 [Example 33, 7-(S)-(((5-Fluoro-1H-indole-2-carbonyl)amino)methyl)-2-(oxalyl-amino)-4,5,6,7-tetrahydro-thieno[2,3-c]pyridine-3-carboxylic acid]
7.38	O=C(O)C(=O)Nc1sc2c(c1C(=O)O)CCN[C@H]2CNC(=O)c1ccc(-c2cccc(-c3ccccc3)c2)cc1 [Example 36]
7.51	O=C(O)C(=O)Nc1sc2c(c1C(=O)O)CCN[C@H]2CNC(=O)c1cc2ccccc2[nH]1 [Example 37, 7-(S)-(((1H-Indole-2-carbonyl)amino)methyl)-2-(oxalyl-amino)-4,5,6,7-tetrahydro-thieno[2,3-c]pyridine-3-carboxylic acid]
7.20	CCOC(=O)C(=O)Nc1sc2c(c1C(=O)O)CCNC2CNC(=O)c1cc2cc(O)ccc2[nH]1 (centres unmarked) [Example 38, 2-(Ethoxyoxalyl-amino)-7-(((5-hydroxy-1H-indole-2-carbonyl)amino)methyl)-4,5,6,7-tetrahydro-thieno[2,3-c]pyridine-3-carboxylic acid]
5.89	CCOC(=O)c1c(NC(=O)C(=O)OCC(C)(C)C)sc2c1CCNC2CNC(=O)c1cc2cc(O)ccc2[nH]1 (centres unmarked) [Example 40, 2-((2,2-Dimethyl-propoxyoxalyl)amino)-7-(((5-hydroxy-1H-indole-2-carbonyl)-amino)methyl)-4,5,6,7-tetrahydro-thieno[2,3-c]pyridine-3-carboxylic acid ethyl ester]
6.05	CCOC(=O)c1c(NC(=O)C(=O)O)sc2c1CCNC2CNC(=O)c1cc2cc(O)ccc2[nH]1 (centres unmarked) [Example 41, 7-(((5-Hydroxy-1H-indole-2-carbonyl)amino)methyl)-2-(oxalyl-amino)-4,7-dihydro-5H-thieno[2,3-c]pyridine-3-carboxylic acid ethyl ester]
6.92	CCOC(=O)N1CCc2c(sc(NC(=O)C(=O)O)c2C(=O)O)C1CNC(=O)c1cc2cc(O)ccc2[nH]1 (centres unmarked) [Example 42, 7-(((5-Hydroxy-1H-indole-2-carbonyl)amino)methyl)-2-(oxalyl-amino)-4,7-dihydro-5H-thieno[2,3-c]pyridine-3,6-dicarboxylic acid 6-ethyl ester]

More lines, now with the values behind:

Structure (SMILES)	pKi
O=C(O)C(=O)Nc1sc2c(c1C(=O)O)CCNC2CNC(=O)c1ccccc1 (centres unmarked) [Example 1, 7-(Benzoylamino-methyl)-2-(oxalyl-amino)-4,5,6,7-tetrahydro-thieno[2,3-c]pyridine-3-carboxylic acid]	6.31
O=C(O)C(=O)Nc1sc2c(c1C(=O)O)CCNC2CNC(=O)c1ccc(NC(=O)c2ccccc2)cc1 (centres unmarked) [Example 6, 7-((4-Benzoylamino-benzoylamino)methyl)-2-(oxalyl-amino)-4,5,6,7-tetrahydro-thieno[2,3-c]pyridine-3-carboxylic acid]	6.48
O=C(CCc1ccc(-c2ccccc2)cc1)NCC1NCCc2c1sc(NC(=O)C(=O)O)c2C(=O)O (centres unmarked) [Example 9, 7-((3-Biphenyl-4-yl-propionylamino)methyl)-2-(oxalyl-amino)-4,5,6,7-tetrahydro-thieno[2,3-c]-pyridine-3-carboxylic acid]	7.21
O=C(O)C(=O)Nc1sc2c(c1C(=O)O)CCNC2CNC(=O)c1ccc(Cc2ccccc2)cc1 (centres unmarked) [Example 11, 7-((4-Benzyl-benzoylamino)methyl)-2-(oxalyl-amino)-4,5,6,7-tetrahydro-thieno[2,3-c]pyridine-3-carboxylic acid]	6.85
O=C(O)C(=O)Nc1sc2c(c1C(=O)O)CCNC2CNC(=O)c1cccc2ccccc12 (centres unmarked) [Example 12, 7-(((Naphthalene-1-carbonyl)amino)methyl)-2-(oxalyl-amino)-4,5,6,7-tetrahydro-thieno[2,3-c]pyridine-3-carboxylic acid]	6.92
O=C(CCc1ccc2ccccc2c1)NCC1NCCc2c1sc(NC(=O)C(=O)O)c2C(=O)O (centres unmarked) [Example 13, 7-((3-Naphthalen-2-yl-propionylamino)methyl)-2-(oxalyl-amino)-4,5,6,7-tetrahydro-thieno[2,3-c]pyridine-3-carboxylic acid]	7.15
O=C(O)C(=O)Nc1sc2c(c1C(=O)O)CCNC2CNC(=O)c1c(O)ccc2ccccc12 (centres unmarked) [Example 14, 7-(((2-Hydroxy-naphthalene-1-carbonyl)amino)methyl)-2-(oxalyl-amino)-4,5,6,7-tetrahydro-thieno[2,3-c]pyridine-3-carboxylic acid]	7.15
CCOc1cccc2cc(C(=O)NC[C@@H]3NCCc4c3sc(NC(=O)C(=O)O)c4C(=O)O)oc12 [Example 20, 7-(S)-(((7-Ethoxy-benzofuran-2-carbonyl)amino)methyl)-2-(oxalyl-amino)-4,5,6,7-tetrahydro-thieno[2,3-c]pyridine-3-carboxylic acid]	6.96
CC(=O)Nc1ccc(S(=O)(=O)NC[C@@H]2NCCc3c2sc(NC(=O)C(=O)O)c3C(=O)O)cc1 [Example 22, 7-(S)-((4-Acetylamino-benzenesulfonylamino)methyl)-2-(oxalyl-amino)-4,5,6,7-tetrahydro-thieno[2,3-c]pyridine-3-carboxylic acid]	7.04
O=C(O)C(=O)Nc1sc2c(c1C(=O)O)CCN[C@H]2CNC(=O)c1ccc2nc[nH]c2c1 [Example 24, 7-(S)-(((3H-Benzoimidazole-5-carbonyl)amino)methyl)-2-(oxalyl-amino)-4,5,6,7-tetrahydro-thieno[2,3-c]pyridine-3-carboxylic acid]	6.19
O=C(O)C(=O)Nc1sc2c(c1C(=O)O)CCN[C@H]2CNC(=O)c1cc2cc(O)ccc2[nH]1 [Example 25, 7-(S)-(((5-Hydroxy-1H-indole-2-carbonyl)amino)methyl)-2-(oxalyl-amino)-4,5,6,7-tetrahydro-thieno[2,3-c]pyridine-3-carboxylic acid]	5.49
O=C(O)C(=O)Nc1sc2c(c1C(=O)O)CCN[C@@H]2CNC(=O)c1cc2cc(O)ccc2[nH]1 [Example 26, 7-(R)-(((5-Hydroxy-1H-indole-2-carbonyl)amino)methyl)-2-(oxalyl-amino)-4,5,6,7-tetrahydro-thieno[2,3-c]pyridine-3-carboxylic acid]	5.59
O=C(O)C(=O)Nc1sc2c(c1C(=O)O)CCN[C@@H]2CNC(=O)c1cn(Cc2ccccc2)c2ccccc12 [Example 27, 7-(R)-(((1-Benzyl-1H-indole-3-carbonyl)amino)methyl)-2-(oxalyl-amino)-4,5,6,7-tetrahydro-thieno[2,3-c]pyridine-3-carboxylic acid]	5.68
CC(=O)OCOC(=O)Oc1ccc2[nH]c(C(=O)NC[C@H]3c4sc(NC(=O)C(=O)O)c(C(=O)O)c4CCN3C(=O)OCOC(C)=O)cc2c1 [Example 35, 7-(S)-(((5-Acetoxymethoxycarbonyloxy-1H-indole-2-carbonyl)amino)methyl)-2-(oxalyl-amino)-4,7-dihydro-5H-thieno[2,3-c]pyridine-3,6-dicarboxylic acid 6-acetoxymethyl ester]	7.49
